Laboratory results reported in paper PMC8887546, “Design and Synthesis of Brain Penetrant Glycopeptide Analogues of PACAP With Neuroprotective Potential for Traumatic Brain Injury and Parkinsonism” (Frontiers in drug discovery, 2022).
Read-outs that look alike come from different tables or passages of the source.

Tests used:
[1] = target: T1, human PAC1 receptor (Homo sapiens, UniProt P41586); assay: cAMP stimulation in CHO cells expressing PAC1; assay type: cell-based; settings: for Emax: CHO
T1 construct: expressed in transfected cells; host or cells: CHO cells (G418 selection)
T1 sequence (P41586 21-468): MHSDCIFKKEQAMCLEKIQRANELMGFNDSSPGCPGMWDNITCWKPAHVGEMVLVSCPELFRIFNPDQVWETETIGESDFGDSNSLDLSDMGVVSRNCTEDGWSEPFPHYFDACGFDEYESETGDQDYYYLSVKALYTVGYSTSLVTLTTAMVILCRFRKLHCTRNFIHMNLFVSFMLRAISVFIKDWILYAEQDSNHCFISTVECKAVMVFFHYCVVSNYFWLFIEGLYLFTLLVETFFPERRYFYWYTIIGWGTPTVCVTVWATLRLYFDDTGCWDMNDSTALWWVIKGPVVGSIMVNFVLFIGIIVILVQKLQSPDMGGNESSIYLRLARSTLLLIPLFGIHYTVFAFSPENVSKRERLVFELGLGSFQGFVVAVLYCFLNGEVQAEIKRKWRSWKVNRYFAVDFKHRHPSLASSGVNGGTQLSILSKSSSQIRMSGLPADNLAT
Method: Briefly, human PAC1, VPAC1, and VPAC2 receptors expressed in CHO cells were used for all experiments. Cells were grown in 50:50 DMEM-F12 medium with 10% heat-inactivated fetal bovine serum, 1X penicillin-streptomycin supplement, and 500 μg/ml G418 (neomycin) to maintain selection (all from ThermoFisher) at 37°C with 5% CO2 atmosphere. For the cAMP assay, cells were seeded at 20,000 cells/well in a 96 well plate, recovered overnight, then serum starved for 4 h. The cells were then incubated with 500 μM IBMX for 20 min, followed by agonist concentration curves in 500 μM IBMX media for 10 min. The reaction was terminated, boiled, then collected, followed by competition with 7 μg of bovine protein kinase A (Sigma-Aldrich) and ∼1 pmol of ^3H-cAMP (PerkinElmer). The assay was incubated at room temp for 1 h, then collected onto GF/B filter plates and the data read using a MicroBeta2 scintillation counter (PerkinElmer).

[2] = target: T2, human VPAC1 receptor (Homo sapiens, UniProt P32241); assay: cAMP stimulation in CHO cells expressing VPAC1; assay type: cell-based
T2 construct: expressed in transfected cells; host or cells: CHO cells (G418 selection)
T2 sequence (P32241 31-457): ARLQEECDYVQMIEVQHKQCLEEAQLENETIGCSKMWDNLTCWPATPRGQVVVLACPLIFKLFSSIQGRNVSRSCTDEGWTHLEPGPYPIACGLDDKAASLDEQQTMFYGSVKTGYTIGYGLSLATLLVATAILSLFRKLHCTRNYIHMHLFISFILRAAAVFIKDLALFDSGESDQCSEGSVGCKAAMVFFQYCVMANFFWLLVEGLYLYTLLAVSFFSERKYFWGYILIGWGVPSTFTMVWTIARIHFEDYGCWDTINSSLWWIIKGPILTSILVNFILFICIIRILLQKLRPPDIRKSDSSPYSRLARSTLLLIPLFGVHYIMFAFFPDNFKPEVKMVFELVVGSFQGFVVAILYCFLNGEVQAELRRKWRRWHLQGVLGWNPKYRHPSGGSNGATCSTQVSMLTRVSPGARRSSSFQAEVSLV

Compound	Emax [1] [%]	Emax ([2]; CHO; read-out: VPAC1 Emax) [%]	further results
CC[C@H](C)[C@H](NC(=O)CNC(=O)[C@H](CC(=O)O)NC(=O)[C@@H](CO)NC(=O)[C@@H](N)Cc1c[nH]cn1)C(=O)N[C@@H](Cc1ccccc1)C(=O)N[C@H](C(=O)N[C@@H](CC(=O)O)C(=O)N[C@@H](CO)C(=O)N[C@@H](Cc1ccc(O)cc1)C(=O)N[C@@H](CO)C(=O)N[C@@H](CCCNC(=N)N)C(=O)N[C@@H](Cc1ccc(O)cc1)C(=O)N[C@@H](CCCNC(=N)N)C(=O)N[C@@H](CCCCN)C(=O)N[C@@H](CCC(N)=O)C(=O)N[C@@H](CC(C)C)C(=O)N[C@@H](C)C(=O)N[C@H](C(=O)N[C@@H](CCCCN)C(=O)N[C@@H](CCCCN)C(=O)N[C@@H](Cc1ccc(O)cc1)C(=O)N[C@@H](CC(C)C)C(=O)N[C@@H](C)C(=O)N[C@@H](C)C(=O)N[C@H](C(=O)N[C@@H](CC(C)C)C(N)=O)C(C)C)C(C)C)[C@@H](C)O [2LS72–3]	95.3 ± 8.1	–	EC50 [1]: 48.6 ± 32 nM
CCC[C@H](NC(=O)[C@H](CCC(N)=O)NC(=O)[C@H](CCCCN)NC(=O)[C@H](CCCNC(=N)N)NC(=O)[C@H](Cc1ccc(O)cc1)NC(=O)[C@H](CCCNC(=N)N)NC(=O)[C@H](CO)NC(=O)[C@H](Cc1ccc(O)cc1)NC(=O)[C@H](CO)NC(=O)[C@H](CC(=O)O)NC(=O)[C@@H](NC(=O)[C@H](Cc1ccccc1)NC(=O)[C@@H](NC(=O)CCCNC(=O)[C@H](CC(=O)O)NC(=O)[C@@H](CO)NC(=O)[C@@H](N)Cc1c[nH]cn1)[C@@H](C)CC)[C@@H](C)O)C(=O)N[C@@H](C)C(=O)N[C@H](C(=O)N[C@@H](CCCCN)C(=O)N[C@@H](CCCCN)C(=O)N[C@@H](Cc1ccc(O)cc1)C(=O)N[C@@H](CC(C)C)C(=O)N[C@@H](C)C(=O)N[C@@H](C)C(=O)N[C@H](C(=O)N[C@@H](CC(C)C)C(=O)N[C@@H](CO[C@@H]1O[C@H](CO)[C@@H](O)[C@H](O)[C@H]1O)C(N)=O)C(C)C)C(C)C [CRA3006]	78	103	–
CCC[C@H](NC(=O)[C@H](CCC(N)=O)NC(=O)[C@H](CCCCN)NC(=O)[C@H](CCCNC(=N)N)NC(=O)[C@H](Cc1ccc(O)cc1)NC(=O)[C@H](CCCNC(=N)N)NC(=O)[C@H](CO)NC(=O)[C@H](Cc1ccc(O)cc1)NC(=O)[C@H](CO)NC(=O)[C@H](CC(=O)O)NC(=O)[C@H](C)NC(=O)[C@H](Cc1ccccc1)NC(=O)[C@@H](NC(=O)CNC(=O)[C@H](CC(=O)O)NC(=O)[C@@H](CO)NC(=O)[C@@H](N)Cc1c[nH]cn1)[C@@H](C)CC)C(=O)N[C@@H](C)C(=O)N[C@H](C(=O)N[C@@H](CCCCN)C(=O)N[C@@H](CCCCN)C(=O)N[C@@H](Cc1ccc(O)cc1)C(=O)N[C@@H](CC(C)C)C(=O)N[C@@H](C)C(=O)N[C@@H](C)C(=O)N[C@H](C(=O)N[C@@H](CO[C@@H]1O[C@H](CO)[C@@H](O)[C@H](O)[C@H]1O)C(N)=O)C(C)C)C(C)C [CRA3004]	–	–	EC50 [2]: 1370 nM; Emax ([2]; CHO, read-out: VPAC1 Emax): 85%
CCC[C@H](NC(=O)[C@H](CCC(N)=O)NC(=O)[C@H](CCCCN)NC(=O)[C@H](CCCNC(=N)N)NC(=O)[C@H](Cc1ccc(O)cc1)NC(=O)[C@H](CCCNC(=N)N)NC(=O)[C@H](CO)NC(=O)[C@H](Cc1ccc(O)cc1)NC(=O)[C@H](CO)NC(=O)[C@H](CC(=O)O)NC(=O)[C@H](C)NC(=O)[C@H](Cc1ccccc1)NC(=O)[C@@H](NC(=O)CNC(=O)[C@H](CC(=O)O)NC(=O)[C@@H](CO)NC(=O)[C@@H](N)Cc1c[nH]cn1)[C@@H](C)CC)C(=O)N[C@@H](C)C(=O)N[C@H](C(=O)N[C@@H](CCCCN)C(=O)N[C@@H](CCCCN)C(=O)N[C@@H](Cc1ccc(O)cc1)C(=O)N[C@@H](CC(C)C)C(=O)N[C@@H](C)C(=O)N[C@@H](C)C(=O)N[C@@H](CO[C@@H]1O[C@H](CO)[C@@H](O)[C@H](O)[C@H]1O)C(=O)N[C@@H](CC(C)C)C(N)=O)C(C)C [CRA3005]	–	78	EC50 ([2]; read-out: VPAC1 EC50): 1620 nM
CC[C@H](C)[C@H](NC(=O)CNC(=O)[C@H](CC(=O)O)NC(=O)[C@H](CO)NC(=O)[C@@H](N)Cc1c[nH]cn1)C(=O)N[C@@H](Cc1ccccc1)C(=O)N[C@H](C(=O)N[C@@H](CC(=O)O)C(=O)N[C@@H](CO)C(=O)N[C@@H](Cc1ccc(O)cc1)C(=O)N[C@@H](CO)C(=O)N[C@@H](CCCNC(=N)N)C(=O)N[C@@H](Cc1ccc(O)cc1)C(=O)N[C@@H](CCCNC(=N)N)C(=O)N[C@@H](CCCCN)C(=O)N[C@@H](CCC(N)=O)C(=O)N[C@@H](CC(C)C)C(=O)N[C@@H](C)C(=O)N[C@H](C(=O)N[C@@H](CCCCN)C(=O)N[C@@H](CCCCN)C(=O)N[C@@H](Cc1ccc(O)cc1)C(=O)N[C@@H](CC(C)C)C(=O)N[C@@H](C)C(=O)N[C@@H](C)C(=O)N[C@H](C(=O)N[C@@H](CC(C)C)C(N)=O)C(C)C)C(C)C)[C@@H](C)O [2LS72–2]	74.3 ± 9.7	–	EC50 [1]: 90.7 nM
PACAP6–38 [reference compound]	–	–	Antagonism of PAC1 ([1]; cAMP assay in CHO cells): unable to demonstrate antagonism

Now from value to compound, other results behind:

Emax [1] [%]	Emax ([2]; CHO; read-out: VPAC1 Emax) [%]	Compound	further results
97	78	CCC[C@H](NC(=O)[C@H](CCC(N)=O)NC(=O)[C@H](CCCCN)NC(=O)[C@H](CCCNC(=N)N)NC(=O)[C@H](Cc1ccc(O)cc1)NC(=O)[C@H](CCCNC(=N)N)NC(=O)[C@H](CO)NC(=O)[C@H](Cc1ccc(O)cc1)NC(=O)[C@H](CO)NC(=O)[C@H](CC(=O)O)NC(=O)[C@@H](NC(=O)[C@H](Cc1ccccc1)NC(=O)[C@@H](CCC)NC(=O)CNC(=O)[C@H](CC(=O)O)NC(=O)[C@@H](CO)NC(=O)[C@@H](N)Cc1c[nH]cn1)[C@@H](C)O)C(=O)N[C@@H](C)C(=O)N[C@H](C(=O)N[C@@H](CCCCN)C(=O)N[C@@H](CCCCN)C(=O)N[C@@H](Cc1ccc(O)cc1)C(=O)N[C@@H](CC(C)C)C(=O)N[C@@H](C)C(=O)N[C@@H](C)C(=O)N[C@H](C(=O)N[C@@H](CC(C)C)C(=O)N[C@@H](CO[C@@H]1O[C@H](CO)[C@@H](O)[C@H](O)[C@H]1O)C(N)=O)C(C)C)C(C)C [CRA3020]	–
144 ± 20.7	–	CC[C@H](C)[C@H](NC(=O)CNC(=O)[C@H](CC(=O)O)NC(=O)[C@H](CO)NC(=O)[C@@H](N)Cc1c[nH]cn1)C(=O)N[C@@H](Cc1ccccc1)C(=O)N[C@H](C(=O)N[C@@H](CC(=O)O)C(=O)N[C@@H](CO)C(=O)N[C@@H](Cc1ccc(O)cc1)C(=O)N[C@@H](CO)C(=O)N[C@@H](CCCNC(=N)N)C(=O)N[C@@H](Cc1ccc(O)cc1)C(=O)N[C@@H](CCCNC(=N)N)C(=O)N[C@@H](CCCCN)C(=O)N[C@@H](CCC(N)=O)C(=O)N[C@@H](CC(C)C)C(=O)N[C@@H](C)C(=O)N[C@H](C(=O)N[C@@H](CCCCN)C(=O)N[C@@H](CCCCN)C(=O)N[C@@H](Cc1ccc(O)cc1)C(=O)N[C@@H](CC(C)C)C(=O)N[C@@H](C)C(=O)N[C@@H](C)C(=O)N[C@H](C(=O)N[C@@H](CC(C)C)C(=O)N[C@@H](CO[C@@H]1O[C@H](CO)[C@@H](O[C@@H]2O[C@H](CO)[C@H](O)[C@H](O)[C@H]2O)[C@H](O)[C@H]1O)C(N)=O)C(C)C)C(C)C)[C@@H](C)O [Compound 2LS80Lact]	–
